Key:
Flag-mUSP18 = biological target: T1, Flag-mUSP18 (Mus musculus, UniProt Q9WTV6); assay: Gel-based ABPP with Rho-mISG15ct-PA probe in HEK293T cells overexpressing Flag-mUSP18; assay type: cell-based, murine; settings: live HEK293T cells, Flag-mUSP18, 4 h treatment
T1 construct: expressed in transfected cells; host or cells: HEK293T
T1 sequence (Q9WTV6 1-368): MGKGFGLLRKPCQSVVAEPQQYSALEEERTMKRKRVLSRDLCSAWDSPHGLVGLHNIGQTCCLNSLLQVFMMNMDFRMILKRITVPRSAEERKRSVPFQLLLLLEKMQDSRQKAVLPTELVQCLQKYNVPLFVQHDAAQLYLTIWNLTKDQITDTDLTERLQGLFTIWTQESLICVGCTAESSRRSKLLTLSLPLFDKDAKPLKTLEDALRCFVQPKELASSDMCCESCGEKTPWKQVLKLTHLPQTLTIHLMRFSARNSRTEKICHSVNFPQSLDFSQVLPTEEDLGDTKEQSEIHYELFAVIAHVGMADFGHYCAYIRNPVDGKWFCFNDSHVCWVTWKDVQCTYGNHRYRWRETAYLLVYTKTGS
Method: To assess the cellular target engagement and cell permeability of these inhibitors, we performed activity‐based protein profiling. […] Following washing and cell lysis, cell extracts were incubated with a Rhodamine‐tagged murine ISG15 C‐terminal domain propargylamide activity‐based probe (Rho‐mISG15ct‐PA), which covalently labels the active site cysteine of active deISGylating enzymes.^[ [41] ^] The labelled enzymes were resolved by SDS‐PAGE and imaged by in‐gel fluorescence, where inhibition of USP18 is reflected by disappearance of the USP18‐probe‐labelled bands around 55 kDa (Figures 6a, S11A). All three inhibitors engaged with cellular mUSP18 in a dose‐dependent manner, with BB07CA902 and BB07CA28 showing efficient inhibition already at 1 µM concentration. […] The in‐cell selectivity of these inhibitors for USP18 over DUBs was confirmed in a similar ABPP experiment using a Rhodamine‐tagged ubiquitin propargylamide probe (Rho‐Ub‐PA),^[ [42] ^] which labels the active site cysteine of all active cysteine DUBs.
Figure 6 Inhibition of murine USP18 activity in living cells. a) Gel‐based ABPP potency assessment using a Rho‐mISG15ct‐PA probe in HEK293T cells overexpressing Flag‐mUSP18. At 24 h following transfection, cells were incubated with DMSO or increasing concentrations of indicated inhibitors for 4 h, lysed, and treated with Rho‐mISG15ct‐PA probe. Top panel: fluorescence scan. Middle panel: anti‐Flag western blot. Bottom panel: anti‐GAPDH western blot confirms equal loading. b) Accumulation of ISGylation in mouse IFN‐β‐stimulated EL4 cells. At 24 h following mouse IFN‐β treatment, cells were incubated with DMSO or increasing concentrations of indicated inhibitors for 4 h, lysed, and treated with Rho‐mISG15ct‐PA probe. […] Middle panel: fluorescence scan. […]
Samples were then diluted 3-fold with water and analyzed by mass spectrometry by injecting 2 μL into a Waters XEVO-G2 XS Q-TOF mass spectrometer equipped with an electrospray ion source in positive mode (capillary voltage 1.2 kV, desolvation gas flow 900 L/h, T = 60 °C) with a resolution of R = 26,000. […]

[1] = biological target: T2, human USP18/ISG15 interaction (Homo sapiens, UniProt Q9UMW8); assay: NanoBRET assay, hUSP18/ISG15 interaction in HEK293T cells
T2 sequence (Q9UMW8 1-372): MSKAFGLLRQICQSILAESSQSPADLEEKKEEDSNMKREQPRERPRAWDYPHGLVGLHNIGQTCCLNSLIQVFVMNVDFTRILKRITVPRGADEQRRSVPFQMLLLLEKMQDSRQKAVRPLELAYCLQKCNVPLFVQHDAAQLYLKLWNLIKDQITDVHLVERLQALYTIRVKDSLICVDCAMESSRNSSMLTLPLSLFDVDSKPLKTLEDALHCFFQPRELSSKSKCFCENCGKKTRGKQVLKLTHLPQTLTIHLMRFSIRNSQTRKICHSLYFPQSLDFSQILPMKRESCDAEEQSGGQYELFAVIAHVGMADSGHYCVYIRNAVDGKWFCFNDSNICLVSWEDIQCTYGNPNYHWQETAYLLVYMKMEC
Method: We tested whether our USP18 activity inhibitor could also affect USP18's nonenzymatic function using our recently developed NanoBRET assay to monitor the interactions of USP18 with STAT2 and ISG15.^[ [43] ^]
normalised to the DMSO control and inhibition was assessed by fitting the data to a dose-
Data are shown as mean ± SD from one biological replicate with
three technical replicates.
Transient NanoBRET assays were performed
following the manufacturer’s instructions (Promega). Briefly, HEK293T cells were transfected
with NanoLuc and HaloTag fusion vectors at 1:100 ratio (20 ng NanoLuc and 2 µg HaloTag
plasmid). After approx. 20 h, cells were harvested, resuspended in phenol red–free Opti-MEM
media supplemented with 4% FCS, and plated in white, flat-bottom, 96-well tissue culture
Immediately before signal detection,
NanoBRET Nano-Glo substrate (Promega) was added, and luminescence was recorded using
nm (HaloTag acceptor). The corrected NanoBRET ratio (mBU) was calculated by dividing the
acceptor signal by the donor signal and subtracting the background signal obtained from the

concentration at which inhibition of mUSP18 probe labelling is observed (Flag-mUSP18) | inhibition of hUSP18/ISG15 interaction [1] | SMILES
≤ 1 µM | did not observe any inhibition | Cc1cc(C(=O)N[C@H]2C[C@@H]3CN(C#N)C[C@@H]3C2)ccc1C(C)C [BB07CA902]
≤ 1 µM | – | Cc1cc(C(=O)N[C@H]2C[C@@H]3CN(C#N)C[C@@H]3C2)ccc1Br [BB07CA28]
